Each structure is given as a SMILES string. In brackets after ≈: the same amount, converted by molar mass.

The target in data set [1] is T1, Prp8 intein (Cryptococcus gattii, UniProt E6R027). Briefly: Split Renilla luciferase RLuc-Prp8 intein splicing assay. Type of data set: biochemical. As to conditions: split Renilla luciferase RLuc-Prp8 intein splicing. The method, then: Split luciferase Prp8 intein splicing assay—The split RLuc-Prp8 fusion protein was carried out and monitored using a Veritas luminometer, as described previously.
(§1) Split luciferase RLuc-Prp8 and NnLuc-Prp8 intein splicing assays—The split RLuc-Prp8 intein splicing assay was carried out and monitored using a Veritas luminometer, as described previously. […] Microbes. Infect. […] For NnLuc-Prp8 intein splicing assay, the NnLuc-prp8 is diluted in assay buffer (50 mM Tris, 0.1% BSA, 1 mM EDTA, pH 7.4) and 50 ul is added to each well in 96 well black plates. Test molecules or the solvent was added and incubated for 30 to 60 min. A splicing inducer TCEP (50 ul, 100 μM) is added and incubated for 24 h. Luciferase substrate (Furimazine, 25 ul 1:10,000 diluted) is added and luminescence is read using a luminescence reader. IC50 is calculated using Graphpad prism.

The target of data set [2] is T1, Prp8 intein. Briefly: Split GFP-Prp8i intein splicing assay. Type of data set: biochemical. The note with it: split GFP-Prp8 intein splicing. The method, then:
Cloning, expression and purfication—The split GFP-Prp8i was constructed using a mega-PCR mutagenesis approach. […] After digestion with Dpn I restriction enzyme, the PCR product was transformed into DH5α Escherichia coli. Clones were verified by plasmid DNA sequencing. The expression, refolding and purification of the GFP-Prp8i fusion protein were carried out as described previously.
[…] Then 100 μl 2×TCEP was added to a final concentration of 20 μM. The reactions were incubated at 25° C. overnight. […] Two readings were taken, one prior to addition of TCEP (I0) and one after incubation overnight with TCEP (If). Fluorescence/luminescence differences (ΔFluorescence or ΔLuminescence) were defined as If−I0 for each well. […] DMF control served as 100% splicing activity.
(§2) Split GFP-Prp8 and CJGFP-Prp8 intein splicing assays—Using black and clear bottom 96-well plates, the DPNB-treated, -refolded and -concentrated GFP-Prp8 or CfGFP-Prp8 fusion protein (0.5 μM) was incubated with compounds or Dimethylsulfoxide (DMSO) solvent control for 30 min at 25° C. in a 100 μl intein splicing buffer (20 mM Bis-tris propane, 0.5 M NaCl, 0.5 M arginine, 1 mM EDTA, and 0.05% CHAPS). Then 100 μl 2×TCEP was added to a final concentration of 20 μM. The reactions were incubated at 25° C. overnight. […] Two readings were taken, one prior to addition of TCEP (I0) and one after incubation overnight with TCEP (If). Fluorescence/luminescence differences (ΔFluorescence or ΔLuminescence) were defined as If−I0 for each well. […] DMSO control served as 100% splicing activity.

The test system of data set [3] is C. neoformans H99 strain. Kind of data set: Fungal susceptibility test, broth microdilution MIC. As to conditions: Cryptococcus neoformans, H99STRAIN; C. neoformans H99, microbroth dilution; read-out: MIC H99. Type of data set: cell-based, Cryptococcus neoformans. How it is done: Fungal susceptibility test—The fungal susceptibility test was carried out with a compound concentration series as described. […] The broth microdilution method was used to determine the compound MIC values against C. neoformans.
Fungal susceptibility test—The fungal susceptibility test was carried out with a compound concentration series as described. […] Microbes. Infect. […] The broth microdilution method was used to determine the compound MIC values against C. neoformans.

Data set [4] can be described thus: in vitro. Type of data set: cell-based, human. The note with it: human, CC50 A549. The method, then:
Cytotoxicity—Cytotoxicity assays were carried out using human lung carcinoma cell line A549, as described (Chen et al., “Selective Inhibition of the West Nile Virus Methyltransferase by Nucleoside Analogs,” Antiviral Research 97(3):232-239 (2013), which is hereby incorporated by reference in its entirety). Briefly, the A549 cells (5×10^3) were incubated with/without compounds in a 96-well plate at 37° C. for 48 h. Cell viability was determined using the MTT assay (ATCC) as was described previously (Chen et al., “Selective Inhibition of the West Nile Virus Methyltransferase by Nucleoside Analogs,” Antiviral Research 97(3):232-239 (2013) and Brecher et al., “Identification and Characterization of Novel Broad-Spectrum Inhibitors of the Flavivirus Methyltransferase,” ACS Infectious Diseases 1(8):340-349 (2015), both of which are hereby incorporated by reference in their entirety). N=3.
Cytotoxicity—Cytotoxicity assays were carried out using human lung carcinoma cell line A549, as described. Chen et al., “Selective Inhibition of the West Nile Virus Methyltransferase by Nucleoside Analogs,” Antiviral Res. 97:232-9 (2013), which is hereby incorporated by reference in its entirety. Briefly, the A549 cells (5×10^3) were incubated with/without compounds in a 96-well plate at 37° C. for 48 h. Cell viability was determined using the MTT assay (ATCC) as was described previously (Chen et al., “Selective Inhibition of the West Nile Virus Methyltransferase by Nucleoside Analogs,” Antiviral Research 97(3):232-239 (2013) and Brecher et al., “Identification and Characterization of Novel Broad-Spectrum Inhibitors of the Flavivirus Methyltransferase,” ACS Infectious Diseases 1(8):340-349 (2015), both of which are hereby incorporated by reference in their entirety). N=3.

The target in data set [5] is T1, Prp8 intein. Briefly: Split Cys-free (Cf) GFP-Prp8 intein splicing assay. The data set is classed as biochemical. The note with it: read-out: IC50 CfGFP-Prp8 (converted). The method, then:
(§3) The constructs for Cys-free (Cf) GFP-Prp8 and Cys-free nanoluciferase NnLuc-Prp8 were codon-optimized, synthesized, and cloned into the pET28a vector using the NcoI and XhoI sites by Gene Universal (Gene Universal, Newark Del.). […] The expression, refolding and purification of the CfGFP-Prp8 and NnLuc-Prp8 fusion proteins were carried out as described previously. […] Microbes. Infect.
as §2

In data set [6] the target is T1, Prp8 intein. Kind of data set: Split nanoluciferase NnLuc-Prp8 intein splicing assay. The data set is classed as biochemical. How it is done:
as §3, §1

T1 sequence (E6R027 entry or part of it): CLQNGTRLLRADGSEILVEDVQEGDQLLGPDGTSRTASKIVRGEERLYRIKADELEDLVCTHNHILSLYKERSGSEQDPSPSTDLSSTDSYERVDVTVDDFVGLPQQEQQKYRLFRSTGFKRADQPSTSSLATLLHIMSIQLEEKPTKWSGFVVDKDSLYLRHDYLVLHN

As a reminder, the IC50 is the concentration needed to halve the response being measured. The MIC is the smallest concentration in the dilution series that meets the test's criterion for growth inhibition. One may read the CC50 as the concentration at which the toxic effect on the cells reaches its halfway point. A higher CC50 goes with lower toxicity to the cells. Turning to `O=C(Nc1ccc(F)cc1F)c1ncsc1S(=O)(=O)c1ccc(Cl)cc1` [JMX0515, 5-((4-Chlorophenyl)sulfonyl)-N-(2,4-difluorophenyl)thiazole-4-carboxamide], the IC50 in data set [1] was 37.7 µM; in data set [2], more than 50 µM. Moreover, the MIC in data set [3] is more than 100 µM. Moreover, half-maximal cytotoxicity in data set [4] (CC50 at 48 h) was put at 210 µM.

For the molecule `O=C(Nc1ccccc1F)c1ncsc1S(=O)(=O)c1ccc(Cl)cc1` [JMX0516, 5-((4-Chlorophenyl)sulfonyl)-N-(2-fluorophenyl)thiazole-4-carboxamide], the IC50 in data set [1] is 13.3 µM; in data set [2] it was 49.3 µM. Further, the MIC in data set [3] was more than 100 µM. Also, the half-maximal cytotoxic concentration (CC50) at 48 h in data set [4] is 144 µM.

On to `O=C(Nc1cccc(F)c1)c1ncsc1S(=O)(=O)c1ccc(Cl)cc1` [JMX0517, 5-((4-Chlorophenyl)sulfonyl)-N-(3-fluorophenyl)thiazole-4-carboxamide], for which the results for the half-maximal inhibitory concentration (IC50) in data set [1] and in data set [2] were 28.4 µM and more than 50 µM, respectively. In data set [3], the MIC is more than 100 µM. For the same molecule, the CC50 at 48 h in data set [4] was 161 µM.

With `O=C(Nc1ccc(Cl)cc1)c1ncsc1S(=O)(=O)c1ccc(Cl)cc1` [JMX0518, N-(4-Chlorophenyl)-5-((4-chlorophenyl)sulfonyl)thiazole-4-carboxamide], the figures for the IC50 in data set [1] and in data set [2] were 6.5 µM and 28 µM, respectively. Also, the MIC in data set [3] came out at 50 µM (≈ 20.7 µg/mL). Besides, in data set [4], the 50% cytotoxic concentration (CC50) at 48 h turned out to be 57.3 µM.

In the case of `O=C(Nc1ccc(Cl)cc1Cl)c1ncsc1S(=O)(=O)c1ccc(Cl)cc1` [JMX0519, 5-((4-Chlorophenyl)sulfonyl)-N-(2,4-dichlorophenyl)thiazole-4-carboxamide], the IC50 turned out to be 11.7 µM in data set [1] and 50 µM in data set [2]. Besides, the MIC in data set [3] is more than 100 µM. In data set [4], the midpoint of cytotoxicity, the CC50 at 48 h, lay at 245 µM.

For `O=C(Nc1ccc(F)c(F)c1)c1ncsc1S(=O)(=O)c1ccc(Cl)cc1` [JMX0520, 5-((4-Chlorophenyl)sulfonyl)-N-(3,4-difluorophenyl)thiazole-4-carboxamide], the IC50 is 27.5 µM in data set [1] and more than 50 µM in data set [2]. Further, the MIC in data set [3] was more than 100 µM. In data set [4], this molecule came in with a CC50 at 48 h of 81.6 µM.

For the molecule `O=C(Nc1ccc(C(F)(F)F)cc1)c1ncsc1S(=O)(=O)c1ccc(Cl)cc1` [JMX0521, 5-((4-Chlorophenyl)sulfonyl)-N-(4-(trifluoromethyl)phenyl)thiazole-4-carboxamide], the 50% inhibitory concentration (IC50) in data set [1] was found to be 29.3 µM; in data set [2], 50 µM. Besides, in data set [3], the MIC was more than 100 µM. For the same molecule, in data set [4], the 50% cytotoxic concentration (CC50) at 48 h amounted to 54.1 µM.

As for `O=C(Nc1ccc(F)cc1)c1nnsc1S(=O)(=O)c1ccc(Cl)cc1Cl` [JMX1059, 5-((2,4-Dichlorophenyl)sulfonyl)-N-(4-fluorophenyl)-1,2,3-thiadiazole-4-carboxamide], the values for the IC50 in data set [5] and in data set [6] were 31.9 µM and 20.9 µM, respectively. Besides, the MIC in data set [3] turned out to be 12.5 µM (≈ 5.4 µg/mL). Also, in data set [4], the 50% cytotoxic concentration (CC50) at 48 h was 68.1 µM.

In the case of `O=C(Nc1ccc(F)cc1)c1nnsc1S(=O)(=O)c1ccc(F)c(F)c1` [JMX1060, 5-((3,4-Difluorophenyl)sulfonyl)-N-(4-fluorophenyl)-1,2,3-thiadiazole-4-carboxamide], the figures for the IC50 in data set [5] and in data set [6] were 32.8 µM and 23.5 µM, respectively. The MIC in data set [3] is 50 µM (≈ 20 µg/mL). The same molecule had a half-maximal cytotoxic concentration (CC50) at 48 h in data set [4] of 61.1 µM.

As to `O=C(Nc1ccc(F)cc1)c1nnsc1S(=O)(=O)c1ccc(F)cc1` [JMX1061, N-(4-Fluorophenyl)-5-((4-fluorophenyl)sulfonyl)-1,2,3-thiadiazole-4-carboxamide], the IC50 in data set [5] is 51.3 µM; in data set [6], 23.7 µM. In addition, in data set [3], the minimal inhibitory concentration (MIC) is more than 50 µM. In addition, in data set [4], the cytotoxic concentration (CC50) at 48 h was determined as 71.7 µM.

As to `O=C(Nc1ccc(F)cc1)c1nnsc1S(=O)(=O)c1ccc(F)cc1F` [JMX1062, 5-((2,4-Difluorophenyl)sulfonyl)-N-(4-fluorophenyl)-1,2,3-thiadiazole-4-carboxamide], the concentration for half-maximal inhibition (IC50) in data set [5] was 38.2 µM; in data set [6], 21.7 µM. In addition, the minimum inhibitory concentration (MIC) in data set [3] is more than 50 µM. This molecule also yielded a CC50 at 48 h in data set [4] of 65.4 µM.

On to `O=C(Nc1ccc(F)cc1)c1nnsc1S(=O)(=O)c1cccc(C(F)(F)F)c1` [JMX1063, N-(4-Fluorophenyl)-5-((3-(trifluoromethyl)phenyl)sulfonyl)-1,2,3-thiadiazole-4-carboxamide], for which the figures for the IC50 in data set [5] and in data set [6] were 35 µM and 28.2 µM, respectively. Also, the MIC in data set [3] worked out at 6.25 µM (≈ 2.7 µg/mL). Also, half-maximal cytotoxicity in data set [4] (CC50 at 48 h) was put at 137 µM.

Regarding `O=C(Nc1ccc(F)cc1)c1nnsc1[S+]([O-])c1cccc(C(F)(F)F)c1` (stereo not shown) [JMX1063-2, N-(4-Fluorophenyl)-5-((3-(trifluoromethyl)phenyl)sulfinyl)-1,2,3-thiadiazole-4-carboxamide], the half-inhibitory concentration (IC50) in data set [5] is 29.2 µM; in data set [6], 12.4 µM. In addition, the minimal inhibitory concentration (MIC) in data set [3] amounted to 6.25 µM (≈ 2.6 µg/mL). The molecule also showed a CC50 at 48 h in data set [4] of 93.8 µM.

Regarding `O=C(Nc1ccc(F)cc1)c1nnsc1S(=O)(=O)c1ccc(Cl)c(Cl)c1` [JMX1064, 5-((3,4-Dichlorophenyl)sulfonyl)-N-(4-fluorophenyl)-1,2,3-thiadiazole-4-carboxamide], the concentration for half-maximal inhibition (IC50) was 32.6 µM in data set [5] and 26 µM in data set [6]. Moreover, the MIC in data set [3] was 1.56 µM (≈ 0.674 µg/mL). Moreover, the 50% cytotoxic concentration (CC50) at 48 h in data set [4] was 78.4 µM.

For `O=C(Nc1ccc(F)cc1)c1nnsc1[S+]([O-])c1ccc(Cl)c(Cl)c1` (stereo not shown) [JMX1064-2, 5-((3,4-Dichlorophenyl)sulfinyl)-N-(4-fluorophenyl)-1,2,3-thiadiazole-4-carboxamide], the IC50 in data set [5] was 19.8 µM; in data set [6] it was 35 µM. Further, in data set [3], the MIC is more than 50 µM. For the same molecule, half-maximal cytotoxicity in data set [4] (CC50 at 48 h) was put at 122 µM.

With `O=C(Nc1cccc(F)c1)c1nnsc1S(=O)(=O)c1ccc(Cl)cc1` [JMX 871, 5-((4-Chlorophenyl)sulfonyl)-N-(3-fluorophenyl)-1,2,3-thiadiazole-4-carboxamide], the IC50 is 35.4 µM in data set [5] and 27.1 µM in data set [6]. In data set [3], the MIC worked out at 3.12 µM (≈ 1.24 µg/mL). For the same molecule, in data set [4], the CC50 at 48 h was 140 µM.

The values above are taken from patent US20230233533A1, “COMPOSITIONS, METHODS OF TREATING AND PREVENTING FUNGAL INFECTIONS, AND METHODS OF INHIBITING PRP8 INTEIN EXPRESSION” (Health Research, Inc., priority 2020, published 2023).
